ChEMBL document CHEMBL3600352, “Design, synthesis and biological evaluation of isoquinoline-based derivatives as novel histone deacetylase inhibitors” (Bioorg Med Chem, 2015)

What was measured:
[1] = biological target: Histone deacetylase 1 (Homo sapiens, UniProt Q13547); experiment: Inhibition of recombinant His6-tagged GST-fused human HDAC1 expressed in baculovirus infected insect High5 cells using Ac-Lys-Tyr-Lys(epsilon-acetyl)-AMC as substrate after 24 hrs
[2] = biological target: Histone deacetylase 3 (Homo sapiens, UniProt O15379); experiment: Inhibition of recombinant His6-tagged GST-fused human HDAC3 expressed in baculovirus infected insect High5 cells using Ac-Lys-Tyr-Lys(epsilon-acetyl)-AMC as substrate after 24 hrs
[3] = test system: HCT-116; experiment: Cytotoxicity against human HCT116 cells assessed as cell viability after 72 hrs by CCK8 assay; assay type: functional, cell-based; settings: HCT-116, 72 h
[4] = biological target: T1, hERG (KCNH2) (Homo sapiens, UniProt Q12809); experiment: Inhibition of human ERG overexpressed in CHO cells at 40 uM by Qpatch method relative to control; assay type: cell-based; settings: CHO cells overexpressing human ERG
[5] = biological target: T2, Histone deacetylase (Homo sapiens) (UniProt Q13547+O15379+Q9UBN7+Q92769+Q9UQL6+Q8WUI4+Q9BY41+Q96DB2+P56524+Q9UKV0+Q969S8); experiment: Inhibition of HDAC in human RPMI8226 cells assessed as upregulation of acetylated histone H3 level after 24 hrs by Western blot analysis; assay type: cell-based; settings: RPMI-8226
[6] = biological target: Voltage-gated inwardly rectifying potassium channel KCNH2 (Homo sapiens, UniProt Q12809); experiment: Inhibition of human ERG overexpressed in CHO cells by Qpatch method; assay type: cell-based
[7] = biological target: T3, Protein deacetylase HDAC6 (Homo sapiens, UniProt Q9UBN7); experiment: Inhibition of recombinant His6-tagged GST-fused human HDAC6 expressed in baculovirus infected insect High5 cells using Boc-Lys-(epsilon-acetyl)-AMC as substrate after 3 hrs
T3 sequence (Q9UBN7 whole entry): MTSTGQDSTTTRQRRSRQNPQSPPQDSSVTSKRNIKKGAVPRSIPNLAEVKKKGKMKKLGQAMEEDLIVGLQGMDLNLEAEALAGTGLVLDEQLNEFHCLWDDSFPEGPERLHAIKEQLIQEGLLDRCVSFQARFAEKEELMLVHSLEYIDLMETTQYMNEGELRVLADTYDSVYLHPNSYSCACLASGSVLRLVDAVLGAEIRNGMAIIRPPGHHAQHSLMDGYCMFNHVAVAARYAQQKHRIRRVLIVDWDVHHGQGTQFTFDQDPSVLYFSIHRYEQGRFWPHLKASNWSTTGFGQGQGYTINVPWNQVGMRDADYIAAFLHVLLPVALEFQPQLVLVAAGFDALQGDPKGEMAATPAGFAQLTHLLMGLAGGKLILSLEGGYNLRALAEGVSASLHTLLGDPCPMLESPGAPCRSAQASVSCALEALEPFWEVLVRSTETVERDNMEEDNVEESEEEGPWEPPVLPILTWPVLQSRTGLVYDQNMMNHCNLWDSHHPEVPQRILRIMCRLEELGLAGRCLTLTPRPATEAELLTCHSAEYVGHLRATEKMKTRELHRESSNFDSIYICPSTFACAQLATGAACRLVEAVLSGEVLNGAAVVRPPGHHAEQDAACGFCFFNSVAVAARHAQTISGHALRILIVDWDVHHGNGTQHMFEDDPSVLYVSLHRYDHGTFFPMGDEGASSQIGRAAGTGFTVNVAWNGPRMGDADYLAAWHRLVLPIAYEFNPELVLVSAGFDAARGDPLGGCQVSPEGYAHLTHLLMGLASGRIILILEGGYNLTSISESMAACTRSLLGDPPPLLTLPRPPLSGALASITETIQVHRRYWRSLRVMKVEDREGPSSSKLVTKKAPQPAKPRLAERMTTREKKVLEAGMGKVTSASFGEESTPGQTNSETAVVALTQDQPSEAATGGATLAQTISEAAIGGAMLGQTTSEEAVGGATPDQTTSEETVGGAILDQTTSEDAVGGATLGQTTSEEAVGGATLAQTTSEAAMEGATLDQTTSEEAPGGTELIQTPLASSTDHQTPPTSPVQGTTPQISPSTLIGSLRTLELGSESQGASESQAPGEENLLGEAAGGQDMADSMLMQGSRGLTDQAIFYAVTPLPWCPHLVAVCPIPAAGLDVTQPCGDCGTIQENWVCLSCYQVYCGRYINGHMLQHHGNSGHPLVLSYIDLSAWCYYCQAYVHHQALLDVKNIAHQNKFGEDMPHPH

[8] = test system: RPMI-8226; experiment: Cytotoxicity against human RPMI8226 cells assessed as cell viability after 72 hrs by CCK8 assay; assay type: functional, cell-based; settings: RPMI-8226, 72 h
[9] = biological target: T2, Histone deacetylase (Homo sapiens); experiment: Inhibition of HDAC in human RPMI8226 cells assessed as upregulation of acetylated alpha-tubulin level after 24 hrs by Western blot analysis; assay type: cell-based; settings: RPMI-8226
[10] = test system: HepG2; experiment: Cytotoxicity against human HepG2 cells assessed as cell viability after 72 hrs by CCK8 assay; assay type: functional, cell-based; settings: HepG2, 72 h
[11] = biological target: T1, hERG (KCNH2); experiment: Inhibition of human ERG overexpressed in CHO cells at 3 uM by Qpatch method relative to control; assay type: cell-based; settings: CHO cells overexpressing human ERG

Chain of Histone deacetylase 1 (Q13547 whole entry, the tested form may be a part): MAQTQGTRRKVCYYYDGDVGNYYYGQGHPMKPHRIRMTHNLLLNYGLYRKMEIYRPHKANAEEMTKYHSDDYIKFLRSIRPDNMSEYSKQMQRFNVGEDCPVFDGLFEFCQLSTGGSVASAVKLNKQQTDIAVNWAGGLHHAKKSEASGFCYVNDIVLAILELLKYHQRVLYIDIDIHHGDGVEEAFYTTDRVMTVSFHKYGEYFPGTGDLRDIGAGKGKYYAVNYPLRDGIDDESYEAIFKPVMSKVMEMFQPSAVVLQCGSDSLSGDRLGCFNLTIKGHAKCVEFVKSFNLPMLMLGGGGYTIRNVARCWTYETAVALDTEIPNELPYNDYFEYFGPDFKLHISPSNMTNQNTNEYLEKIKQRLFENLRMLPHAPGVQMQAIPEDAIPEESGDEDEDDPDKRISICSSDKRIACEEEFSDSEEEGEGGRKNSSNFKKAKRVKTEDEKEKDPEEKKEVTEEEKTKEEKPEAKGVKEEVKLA
T1 sequence (Q12809 whole entry): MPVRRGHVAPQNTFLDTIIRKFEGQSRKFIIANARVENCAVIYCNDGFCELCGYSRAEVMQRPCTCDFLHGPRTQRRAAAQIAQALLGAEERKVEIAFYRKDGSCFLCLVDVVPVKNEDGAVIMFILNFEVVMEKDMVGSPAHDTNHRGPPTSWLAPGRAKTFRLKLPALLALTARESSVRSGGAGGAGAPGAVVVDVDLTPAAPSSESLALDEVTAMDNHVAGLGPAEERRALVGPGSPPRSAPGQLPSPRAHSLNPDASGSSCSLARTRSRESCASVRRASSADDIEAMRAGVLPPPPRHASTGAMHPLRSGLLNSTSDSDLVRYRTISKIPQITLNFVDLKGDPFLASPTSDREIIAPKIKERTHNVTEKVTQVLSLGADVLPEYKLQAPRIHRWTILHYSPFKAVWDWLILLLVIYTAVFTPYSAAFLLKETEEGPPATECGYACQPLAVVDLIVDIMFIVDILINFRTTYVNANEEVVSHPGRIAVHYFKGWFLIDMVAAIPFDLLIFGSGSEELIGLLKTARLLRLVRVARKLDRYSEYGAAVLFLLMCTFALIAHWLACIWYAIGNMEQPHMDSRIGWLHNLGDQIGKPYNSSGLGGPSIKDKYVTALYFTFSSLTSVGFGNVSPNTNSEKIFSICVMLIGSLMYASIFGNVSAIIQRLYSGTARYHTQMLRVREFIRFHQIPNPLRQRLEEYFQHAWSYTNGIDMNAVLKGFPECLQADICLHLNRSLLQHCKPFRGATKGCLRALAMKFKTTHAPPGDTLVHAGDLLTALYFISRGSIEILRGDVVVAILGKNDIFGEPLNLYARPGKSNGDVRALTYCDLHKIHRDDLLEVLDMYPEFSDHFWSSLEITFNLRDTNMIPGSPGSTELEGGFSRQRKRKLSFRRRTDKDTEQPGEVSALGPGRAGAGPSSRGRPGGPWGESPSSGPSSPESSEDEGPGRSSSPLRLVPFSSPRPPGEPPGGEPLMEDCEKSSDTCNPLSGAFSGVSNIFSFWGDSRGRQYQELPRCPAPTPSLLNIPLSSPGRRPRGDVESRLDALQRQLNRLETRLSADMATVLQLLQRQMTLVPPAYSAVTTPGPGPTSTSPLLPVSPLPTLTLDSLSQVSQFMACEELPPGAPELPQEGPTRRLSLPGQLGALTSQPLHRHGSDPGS
Chain of Histone deacetylase 3 (O15379 whole entry, the tested form may be a part): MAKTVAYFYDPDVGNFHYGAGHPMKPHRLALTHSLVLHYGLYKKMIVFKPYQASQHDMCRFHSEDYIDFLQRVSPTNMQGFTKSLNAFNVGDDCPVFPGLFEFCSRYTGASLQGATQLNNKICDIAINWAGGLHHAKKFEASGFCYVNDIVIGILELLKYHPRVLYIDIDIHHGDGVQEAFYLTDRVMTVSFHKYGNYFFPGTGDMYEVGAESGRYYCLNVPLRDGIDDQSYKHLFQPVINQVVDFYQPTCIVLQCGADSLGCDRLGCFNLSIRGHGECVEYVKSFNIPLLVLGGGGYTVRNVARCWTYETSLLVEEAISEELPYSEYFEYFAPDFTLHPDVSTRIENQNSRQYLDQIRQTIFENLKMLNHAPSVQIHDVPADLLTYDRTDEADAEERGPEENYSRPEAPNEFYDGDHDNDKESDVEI
Chain of Voltage-gated inwardly rectifying potassium channel KCNH2 (Q12809 whole entry, the tested form may be a part): as the sequence (Q12809 whole entry) above

Compound	IC50 [1] [nM]	IC50 [2] [nM]	IC50 [3] [nM]	inhibition at 40 µM [4] [%]	inhibition [5]	IC50 [6] [nM]	IC50 [7] [nM]	IC50 [8] [nM]	inhibition [9]	IC50 [10] [nM]	inhibition at 3 µM [11] [%]
O=C(CCCCCCC(=O)Nc1ccc2ccnc(Nc3ccc(Br)cc3F)c2c1)NO	15.5	16.7	190	43.7	Dose-dependent effect	> 40000	6.83	460	Dose-dependent effect	5870	
O=C(CCCCCCC(=O)Nc1ccc2ccnc(Nc3ccccc3F)c2c1)NO	18	18.9					11	940			
COc1ccc(Cn2ccc3ccc(NC(=O)CCCCCCC(=O)NO)cc3c2=O)c(OC)c1	98.1	108					100	2640			
CCCCn1ccc2ccc(NC(=O)CCCCCCC(=O)NO)cc2c1=O	65.8	92	1720				32.1	1880		18500	
O=C(CCCCCCC(=O)Nc1ccc2ccnc(N3CCOCC3)c2c1)NO	45.9	40.8	280				29.5	1330		14000	
CC(C)N1CCN(c2nccc3ccc(NC(=O)CCCCCCC(=O)NO)cc23)CC1	41.6	36					25	1350			
Cc1ccc(Nc2nccc3ccc(NC(=O)CCCCCCC(=O)NO)cc23)c(Br)c1	15.4	17.6	260				6.26	470		8450	
Cc1ccc(Nc2nccc3ccc(NCc4ccc(/C=C/C(=O)NO)cc4)cc23)c(Cl)c1	571	475					286	2710			
COc1cc(N)c(Cl)cc1C(=O)NC1CCN(CCCOc2ccc(F)cc2)CC1OC (stereo not drawn) [CISAPRIDE]											98.7
COCCN(CCOC)c1nccc2ccc(NC(=O)CCCCCCC(=O)NO)cc12	263	192					148	7710			
O=C(CCCCCCC(=O)Nc1ccc2ccnc(Nc3ccc4ccccc4c3)c2c1)NO	5.75	5.42		17.5		> 40000	5.15	740			
O=C(CCCCCCC(=O)Nc1ccc2ccnc(Nc3cccc(Cl)c3F)c2c1)NO	17.5	21.6			Dose-dependent effect		7.96	720	Dose-dependent effect		
Cc1ccc(Nc2nccc3ccc(NCc4ccc(/C=C/C(=O)NO)cc4)cc23)cc1	205	176					58.9	2040			
COCCCNc1nccc2ccc(NC(=O)CCCCCCC(=O)NO)cc12	27.9	14					13.6	2710			
CCN(CC)CCn1ccc2ccc(NC(=O)CCCCCCC(=O)NO)cc2c1=O	69	74.4					38.7	2160			
CC(C)CCn1ccc2ccc(NC(=O)CCCCCCC(=O)NO)cc2c1=O	66	69.2					54.2	1800			
Cc1ccc(Nc2nccc3ccc(NCc4ccc(/C=C/C(=O)NO)cc4)cc23)c(Br)c1	439	633					304	5220			
Cc1ccc(Nc2nccc3ccc(NC(=O)CCCCCCC(=O)NO)cc23)c(F)c1	35.4	39.7					40.9	2040			
Cc1ccc(Nc2nccc3ccc(NC(=O)CCCCCCC(=O)NO)cc23)cc1	4.17	4					3.77	770			
Cc1ccc(Nc2nccc3ccc(NC(=O)CCCCCCC(=O)NO)cc23)c(Cl)c1	19.5	21.2	170				29.9	520		10000	
Cc1ccc(Nc2nccc3ccc(NCc4ccc(C(=O)NO)cc4)cc23)cc1	323	264					352	> 20000			
O=C(COc1ccc(C(=O)NO)cc1)Nc1ccc2ccnc(Nc3ccc4ccccc4c3)c2c1	272	276					545	7300			
